Measured values taken from ChEMBL document CHEMBL1126417, “Indazole as an indole bioisostere: 5-HT4 receptor antagonism” (Bioorg Med Chem Lett, 1992).

What was measured:
[1] = molecular target: Serotonin 3 (5-HT3) receptor (Homo sapiens) (UniProt P46098+A5X5Y0+O95264+Q70Z44+Q8WXA8)
Description: Evaluated for the 5-hydroxytryptamine 3 receptor antagonistic activity in Bezold-Jarisch model expressed as inhibition of the reflex bradycardia induced by an intravenous injection

[2] = molecular target: Serotonin 4 (5-HT4) receptor (Sus scrofa) (UniProt Q6Q253); assay: Evaluated for the 5-hydroxytryptamine 4 receptor antagonistic activity in piglet atrium model; type: functional, tissue-based; settings: Cardiac atrium
Sequence of Serotonin 4 (5-HT4) receptor (Sus scrofa) (Q6Q253 as listed by the source): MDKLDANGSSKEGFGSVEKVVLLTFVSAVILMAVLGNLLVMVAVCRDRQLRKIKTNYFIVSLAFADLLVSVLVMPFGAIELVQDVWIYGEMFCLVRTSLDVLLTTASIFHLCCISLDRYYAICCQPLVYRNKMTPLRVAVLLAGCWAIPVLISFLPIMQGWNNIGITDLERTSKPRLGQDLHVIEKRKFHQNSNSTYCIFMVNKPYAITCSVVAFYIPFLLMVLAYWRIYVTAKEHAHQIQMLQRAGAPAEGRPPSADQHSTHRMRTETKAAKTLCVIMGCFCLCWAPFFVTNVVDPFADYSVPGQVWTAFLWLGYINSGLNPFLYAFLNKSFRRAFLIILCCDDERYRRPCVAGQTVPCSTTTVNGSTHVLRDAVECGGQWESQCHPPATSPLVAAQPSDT

| SMILES | ID50 [1] | -Log KB [2] |
| --- | --- | --- |
| CN1C2CCCC1CC(NC(=O)c1[nH]nc3ccccc13)C2 (stereo not given) | 1 µg/kg | 5 |
| CN1C2CCC1CC(NC(=O)c1n[nH]c3ccccc13)C2 (stereo not given) | 1.5 µg/kg | 6.8 |
| CN1[C@@H]2CC[C@H]1C[C@H](NC(=O)c1nn(C)c3ccccc13)C2 | – | 6.5 |
| CN1[C@@H]2CC[C@H]1C[C@@H](OC(=O)c1c[nH]c3ccccc13)C2 | 1.4 µg/kg | 6.9 |
| CN1C2CCC1CC(OC(=O)c1[nH]nc3ccccc13)C2 (stereo not given) | 5 µg/kg | 7.2 |
| CN1C2CCC1CC(NC(=O)N1CC(C)(C)c3ccccc31)C2 (stereo not given) | – | 4.9 |
